Measured values taken from publication PMC9312901 (2022).

What was measured:
[1] = system: APT (3-O-C12-HSL aptamer) (DNA, aptamer) GCAATGGTACGGTACTTCCCGGGGCCCGCTTCTGGTGCGGTGTACTAGTGACCGCAAAAGTGCACGCTACTTTGCTAA; assay: EIS aptasensor (C-SPE/AuNPs/APT/MCH); details: 10 µM compound, 30 min, room temperature; [Fe(CN)6]3-/4- redox probe
[2] = system: APT (3-O-C12-HSL aptamer) (DNA, aptamer) GCAATGGTACGGTACTTCCCGGGGCCCGCTTCTGGTGCGGTGTACTAGTGACCGCAAAAGTGCACGCTACTTTGCTAA; assay: SPR, steady-state affinity fit; details: Na+ 100 mM; K+ 100 mM; Mg2+ 10 mM (TRIS buffer; running buffer printed only as 10 mM TRIS); 10 mM TRIS pH 7.4 running buffer; aptamer on gold chip, MCH blocked; 10-1000 nM
[3] = system: APT (3-O-C12-HSL aptamer) (DNA, aptamer) GCAATGGTACGGTACTTCCCGGGGCCCGCTTCTGGTGCGGTGTACTAGTGACCGCAAAAGTGCACGCTACTTTGCTAA; assay: SPR, kinetic 1:1 Langmuir fit (kd/ka); details: Na+ 100 mM; K+ 100 mM; Mg2+ 10 mM (TRIS buffer; running buffer printed only as 10 mM TRIS); 10 mM TRIS pH 7.4 running buffer; aptamer on gold chip, MCH blocked; 10-1000 nM
[4] = system: APT (3-O-C12-HSL aptamer) (DNA, aptamer) GCAATGGTACGGTACTTCCCGGGGCCCGCTTCTGGTGCGGTGTACTAGTGACCGCAAAAGTGCACGCTACTTTGCTAA; assay: DPV on C-SPE/AuNPs/APT/MCH electrode; details: 0.5 mM MB, 30 min; measured in 10 mM PBS pH 7.4; MB lost on successive blank incubations

| Compound | binding [1] | other results |
| --- | --- | --- |
| CCCC(=O)N[C@H]1CCOC1=O | weak |  |
| CCCCCCCCCC(=O)CC(=O)N[C@H]1CCOC1=O |  | KD,equilibrium [2]: 106.7 ± 9.3 nM; KD,kinetic [3]: 87.1 ± 10 nM |
| CN(C)c1ccc2nc3ccc(N(C)C)cc3[s+]c2c1 |  | binding [4]: yes |
| CCCCCCCC(=O)CC(=O)N[C@H]1CCOC1=O | yes |  |
| CCCCCCCCCCCC(=O)N[C@H]1CCOC1=O | yes |  |
